Assay results as given in patent publication US20140336067A1, “METHOD FOR FINDING BIOACTIVE PEPTIDES” (Nano Intelligent Biomedical Engineering Corporation Co. Ltd., priority 2011, published 2014).

Assays:
[1] = system: hMSCs (human mesenchymal stem cells); assay: In vitro cell differentiation potential by calcium production (Alizarin red S staining); assay type: cell-based; conditions: hMSCs treated with 10 mM peptide, hard tissue forming medium, FIG. 6
Method: To measure the cell differentiation ability of the heparin binding peptide by calcium production, 1×10^3 hMSCs (human mesenchymal stem cells) were dispensed into each well of a well-plate, and then treated with 10 mM of each of the peptides of SEQ ID NOS: 2 and 3 synthesized in Example 2. Then, the cells were cultured in a hard tissue forming medium (MSCBM medium containing 15% FBS (fetal bovine serum), […] L-ascorbic acid, 10^−7 M dexamethasone, 1% antibiotic-antimycotic solution, and 10 mM beta-glycerol phosphate) for […]. After completion of the culture, the medium was removed, and the cells were washed twice with phosphate buffered saline (PBS). Then, the cells were fixed with 90% ethanol at 4° C. for 15 minutes and washed twice with distilled water, followed by staining with 2% Alizarin red S solution (pH 4.2; Alizarin red S powder, Junsei, JAPAN) for 5 minutes.

[2] = Binding of synthesized peptide to heparin (solid phase method, HRP-conjugated heparin binding protein, absorbance at 405 nm); conditions: peptide coated on 96-well plates, sodium heparin 10 μg/100 μL, FIG. 5
Method: The synthesized peptide was dissolved in PBS at various concentrations and coated on the surface of 96-well Maxisorp microtiter plates (Nunc). Then, it was blocked with 1% BSA at 37° C. for 1 hour, and sodium heparin (10 μg/100 μL) was added to the peptide and reacted with the peptide at room temperature for 4 hours. The plate was washed three times with PBS, and then horseradish peroxidase (HRP)-conjugated heparin binding protein (Lifespan Technologies, Salt Lake City, Utah) diluted in PBS at a concentration of 1 μg/mL was reacted with the peptide at room temperature for 1 hour. To measure the binding of HRP-conjugated heparin binding protein to the peptide, ABTS was added to each well to develop color, and after 5 minutes, 1% SDS was added to each well to stop the reaction. Then, the absorbance of each well at 405 nm was measured. The absorbance of the peptide having the HRP-conjugated heparin binding protein bound thereto was calculated relative to 100% for the well surface coated with 1% BSA.
Binding %=(absorbance of well coated with heparin binding peptide/absorbance of well coated with BSA)×100

Sequence	production of calcium [1]	ability to bind to heparin [2]
SLYVDFSDVGW (the sequence is synthesized) [SEQ ID NO: 3, BMP-4 peptide selected from chymotrypsin cleavage sites]	lowest	–
SQRARKKNKNCRRH (the sequence is synthesized) [SEQ ID NO: 2]	highest	high ability to bind to heparin
